Measurements taken from ChEMBL document CHEMBL1201862, “PubChem BioAssay data set” (2004).
The source made the active and inactive calls.

Legend:
Genome polyprotein = Genome polyprotein (Hepatitis C virus, UniProt Q2Q167); test: disruption of hepatitis C core self-association – biochemical, TR-FRET, dose response (AID 2159); set-up: species or system Hepacivirus hominis;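 also: blocks dimerization of HCV core protein measured by TR-FRET between tagged core106 pairs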
[1] = molecular target: Induced myeloid leukemia cell differentiation protein Mcl-1 (Homo sapiens, UniProt Q07820); format: functional
Cytochrome P450 2D6 = Cytochrome P450 2D6 (Homo sapiens, UniProt P10635);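 also: CYP2D6 member of a cytochrome P450 panel assay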
Ephrin type-A receptor 4 = Ephrin type-A receptor 4 (Mus musculus, UniProt Q03137); test: EphA4 ligand-binding antagonists – biochemical, colorimetric, mouse EphA4, primary screen (AID 689); format: functional
Protein Tat = Protein Tat (Human immunodeficiency virus type 1 group M subtype B (isolate HXB2)(HIV-1), UniProt P04608); format: functional;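 also: tat binding to TAR RNA read out by fluorescence polarization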
Caspase-6 = Caspase-6 (Homo sapiens, UniProt P55212); test: inhibition of CASP6 peptide cleavage – biochemical, VEID-R110 fluorescence, cherry-pick, dose response (AID 720632)
Kallikrein-7 = Kallikrein-7 (Homo sapiens, UniProt P49862); test: Fluorescence Intensity-based biochemical primary high throughput dose response assay to identify activators of kallikrein-7 (K7) zymogen.
[2] = Luminescence-based cell-based high throughput dose response assay to identify activators of the DAF-12 from the parasite S. stercoralis (ssDAF-12).; format: functional
cells [3] = test: cells
[4] = molecular target: T1, Oxysterols receptor LXR-beta (Homo sapiens, UniProt P55055); format: functional, cell-based;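 also: Cell-based luminescence dose-response assay of agonist activity at LXR, run as a confirmatory counterscreen to a daf-12 agonist screen; HEK293 cells with Gal4-LXR fusion and GAL4-driven luciferase reporter; agonist potency from rising luciferase signal of a Gal4-LXR reporter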
T1 sequence (P55055 whole entry): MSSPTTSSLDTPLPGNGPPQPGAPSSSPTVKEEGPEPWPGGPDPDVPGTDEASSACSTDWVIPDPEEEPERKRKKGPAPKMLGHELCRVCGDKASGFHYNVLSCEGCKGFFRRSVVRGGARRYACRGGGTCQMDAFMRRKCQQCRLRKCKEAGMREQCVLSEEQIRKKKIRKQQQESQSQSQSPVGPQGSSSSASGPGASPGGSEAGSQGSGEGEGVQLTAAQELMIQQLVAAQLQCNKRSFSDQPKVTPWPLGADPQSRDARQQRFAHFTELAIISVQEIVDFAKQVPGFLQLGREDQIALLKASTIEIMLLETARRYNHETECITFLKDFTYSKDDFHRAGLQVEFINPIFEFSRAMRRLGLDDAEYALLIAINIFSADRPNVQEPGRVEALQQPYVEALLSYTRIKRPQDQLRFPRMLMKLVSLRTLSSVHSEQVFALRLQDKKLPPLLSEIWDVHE

cells [5] = test: cells; remark: listed apart in the source
Streptokinase A = molecular target: T2, Streptokinase A (Streptococcus pyogenes serotype M1, UniProt P10520); test: viability-normalized secreted streptokinase activity reduction – plasminogen activation absorbance, OD405, dose response (AID 1914); format: functional, Streptococcus pyogenes M1 GAS;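 also: secreted streptokinase activity via plasminogen activation per viability signal from cell pellet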
T2 sequence (P10520 whole entry): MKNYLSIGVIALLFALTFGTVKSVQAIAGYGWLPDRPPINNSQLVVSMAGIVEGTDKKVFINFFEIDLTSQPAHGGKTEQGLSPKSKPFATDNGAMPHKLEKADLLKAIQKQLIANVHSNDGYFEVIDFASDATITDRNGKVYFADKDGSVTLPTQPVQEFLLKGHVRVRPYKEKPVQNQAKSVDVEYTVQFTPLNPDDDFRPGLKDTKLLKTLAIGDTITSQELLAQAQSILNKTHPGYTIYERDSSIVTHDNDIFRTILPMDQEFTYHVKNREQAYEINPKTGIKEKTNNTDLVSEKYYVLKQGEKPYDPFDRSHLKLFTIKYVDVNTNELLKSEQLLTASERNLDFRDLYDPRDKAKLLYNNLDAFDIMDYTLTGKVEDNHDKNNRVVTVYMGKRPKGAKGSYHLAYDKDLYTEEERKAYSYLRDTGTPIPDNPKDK

[6] = viability loss in HepG2 hepatoma cells – cell-based, ATP luminescence, cherry-pick, activator set 2, cytotoxicity control, dose response (AID 1053143); format: functional
[7] = NIH3T3 cell viability loss – ATP luminescence, mouse fibroblasts, counter-screen, dose response (AID 2010); format: functional, cell-based;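 also: cells exposed to compound for about 90 hours before reading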
[8] = Trypanosoma cruzi growth suppression in host cells – NIH3T3 host cells, beta-gal luminescence, confirmation (AID 2044); format: functional, cell-based;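 also: intracellular parasites grown in NIH/3T3 mouse fibroblasts as host cells; luminescent beta-galactosidase reporter signal from transgenic T. cruzi replicating inside host cells; inhibitors lower the luminescence signal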
[9] = system: Streptococcus sp. 'group A'; test: Streptococcus pyogenes SK(-)GAS viability under kanamycin – luminescence, BacTiterGlo, confirmation, counter-screen for streptokinase expression inhibitor project, dose response (AID 1900); format: functional, organism-based
Streptococcus = test: GAS UMAA2166 growth inhibition – luminescence, BacTiterGlo, counter-screen for streptokinase expression inhibitor project, dose response (AID 1915); format: functional, organism-based;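 also: potency for reduction of bacterial viability or growth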
[10] = general mammalian cell viability loss – activator set, cherry-pick, cytotoxicity control for miR-122 modulator project, dose response (AID 720690); format: functional, cell-based;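 also: HEK293T human cells scored for general mammalian cytotoxicity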
[11] = activation of miR-122 Renilla sensor silencing – cell-based, Huh7 psiCHECK-miR122, Renilla luciferase, cherry-picked, dose response (AID 651956); format: functional;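 also: huh7 hepatoma cells stably carrying a psiCHECK-2 miR-122 sensor plasmid; renilla luciferase signal reporting endogenous miR-122 activity after 48 h compound exposure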
[12] = Luminescence Cell-Based Dose Retest to Confirm Inhibitors of Cancer Stem Cells. [Related pubchem assays (depositor defined):AID2717, AID2721]; format: functional; details: Homo sapiens
[13] = molecular target: Luciferin 4-monooxygenase (Photinus pyralis, UniProt P08659); test: Counter Screen for Luciferase-based Assay Positives. [Related pubchem assays: 620, 618, 411 ]
HT-1080 = test: HT1080 cell viability loss – fluorescence readout (AID 620); format: functional, cell-based; details: Homo sapiens
Paired box protein Pax-8 = Paired box protein Pax-8 (Homo sapiens, UniProt Q06710); test: PAX8 transcriptional activity inhibition in RMG-I – RMG-I cells, luciferase, cherry-pick, dose response (AID 687027); format: functional, cell-based;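 also: luciferase reporter driven by Pax8 target thyroperoxidase promoter measured by SteadyGlo luminescence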
[14] = IGROV1 cell killing – plate reader, dry powder samples, PAX8 inhibitor project, dose response (AID 743043); format: functional, cell-based; details: IGROV-1
[15] = OVCAR8 cell viability loss – plate reader, dry powder samples, PAX8 project, dose response (AID 743197); format: functional, cell-based; details: OVCAR-8
[16] = OVCAR-3 cell viability loss – plate reader, dry powder samples, PAX8 inhibitor project, dose response (AID 743044); format: functional, cell-based
[17] = viability loss in HEK293 kidney cells – cell-based, cherry-picks, set 5, cytotoxicity control, dose response (AID 1053117); format: functional
[18] = reduced cellular PGC1a acetyl-lysine signal – cell-based, cherry-picked samples, dose response (AID 720514); format: functional;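 also: potency may reflect raised or lowered acetylation signal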
[19] = blockers of FN fibrillogenesis by fibroblasts – AH1F cells, Alexa488-FN fluorescence, cherry-picks, dose response (AID 1035475); format: functional, cell-based
[20] = toxicity to human hepatoma HepG2 cells – cell-based, cherry-picked samples, cytotoxicity control, dose response (AID 1159577); format: functional
[21] = P. falciparum Dd2 growth inhibitors, dose response, SYBR Green, cherry-picked samples (AID 1159567); format: functional, cell-based
[22] = molecular target: Peroxisome proliferator-activated receptor gamma/Nuclear receptor coactivator 2 (Homo sapiens, UniProt P37231); format: functional;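 also: agonist potency for raising coactivator recruitment to the receptor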
[23] = Luminescence Cell-Based Dose Response HTS to Identify Activators of Luciferase Translation or Activity in H4 […] Cells. [Related pubchem assays: 1829 (Project Summary), 1814 (Primary HTS)]; format: functional
[24] = Luminescence Cell-Based Dose Confirmation HTS to Identify Activators of 5'UTR Stem-Loop Driven Alpha-Synuclein mRNA Translation in H4 Neuroglioblastoma Cells. [Related pubchem assays: 1829 (Project Summary), 1814 (Primary HTS)]; format: functional
[25] = molecular target: Peroxisome proliferator-activated receptor gamma/Nuclear receptor coactivator 3 (Homo sapiens, UniProt P37231); format: functional;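 also: agonist potency for raising coactivator recruitment to the receptor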
H4 = test: Luminescence Cell-Based Dose Response HTS to Identify Activators of 5'UTR Stem-Loop Driven Prion Protein mRNA Translation in H4 Neuroglioblastoma Cells. [Related pubchem assays: 1829 (Project Summary), 1814 (Primary HTS)]; format: functional; details: Homo sapiens
[26] = molecular target: Peroxisome proliferator-activated receptor gamma/Nuclear receptor coactivator 1 (Homo sapiens, UniProt P37231); format: functional;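 also: agonist potency as compounds enhance coactivator SRC-1 recruitment to PPARgamma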
cells [27] = details: A549

Chain of Protein Tat (P04608 whole entry): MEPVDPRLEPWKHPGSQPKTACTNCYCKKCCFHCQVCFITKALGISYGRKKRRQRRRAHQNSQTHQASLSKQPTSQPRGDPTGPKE
Chain of Ephrin type-A receptor 4 (Q03137 whole entry): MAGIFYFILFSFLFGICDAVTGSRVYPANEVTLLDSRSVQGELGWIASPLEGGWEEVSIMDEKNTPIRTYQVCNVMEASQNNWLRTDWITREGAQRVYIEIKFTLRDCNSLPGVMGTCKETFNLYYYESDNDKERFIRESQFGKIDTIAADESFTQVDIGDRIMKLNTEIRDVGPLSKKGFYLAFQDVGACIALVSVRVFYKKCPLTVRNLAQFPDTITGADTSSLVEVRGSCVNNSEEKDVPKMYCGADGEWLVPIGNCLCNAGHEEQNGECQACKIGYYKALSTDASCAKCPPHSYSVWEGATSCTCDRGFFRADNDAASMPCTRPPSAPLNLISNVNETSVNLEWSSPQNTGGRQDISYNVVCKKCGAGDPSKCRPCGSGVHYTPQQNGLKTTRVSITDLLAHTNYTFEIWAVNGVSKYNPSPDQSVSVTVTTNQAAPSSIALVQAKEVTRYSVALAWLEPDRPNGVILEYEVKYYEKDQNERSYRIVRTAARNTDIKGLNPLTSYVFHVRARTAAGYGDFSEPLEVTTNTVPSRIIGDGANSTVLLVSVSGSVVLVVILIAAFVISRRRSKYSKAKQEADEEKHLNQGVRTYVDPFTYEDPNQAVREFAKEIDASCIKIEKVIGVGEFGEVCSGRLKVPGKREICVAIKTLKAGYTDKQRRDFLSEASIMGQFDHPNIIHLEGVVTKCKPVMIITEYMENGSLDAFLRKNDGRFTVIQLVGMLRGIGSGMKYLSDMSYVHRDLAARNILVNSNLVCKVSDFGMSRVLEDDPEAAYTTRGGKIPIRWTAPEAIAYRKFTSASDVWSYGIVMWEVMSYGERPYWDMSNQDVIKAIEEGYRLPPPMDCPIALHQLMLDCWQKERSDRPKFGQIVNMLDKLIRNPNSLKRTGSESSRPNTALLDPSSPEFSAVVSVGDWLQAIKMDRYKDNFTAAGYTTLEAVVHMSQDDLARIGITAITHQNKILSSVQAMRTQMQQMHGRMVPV
Chain of Peroxisome proliferator-activated receptor gamma/Nuclear receptor coactivator 2 (P37231 whole entry): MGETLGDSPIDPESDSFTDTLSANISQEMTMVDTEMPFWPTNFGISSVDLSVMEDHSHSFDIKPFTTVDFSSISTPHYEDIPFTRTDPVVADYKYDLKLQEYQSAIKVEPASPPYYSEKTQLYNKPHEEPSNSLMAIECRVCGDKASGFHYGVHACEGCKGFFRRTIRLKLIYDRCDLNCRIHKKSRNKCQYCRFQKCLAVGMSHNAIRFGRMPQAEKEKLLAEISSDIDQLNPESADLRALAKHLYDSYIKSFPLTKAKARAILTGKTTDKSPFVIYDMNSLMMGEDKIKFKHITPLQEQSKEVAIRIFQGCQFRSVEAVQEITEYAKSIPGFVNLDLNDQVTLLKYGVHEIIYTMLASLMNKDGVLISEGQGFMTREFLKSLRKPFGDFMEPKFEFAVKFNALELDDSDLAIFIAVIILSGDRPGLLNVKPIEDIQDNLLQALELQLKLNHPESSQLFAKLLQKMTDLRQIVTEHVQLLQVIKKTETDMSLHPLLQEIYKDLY
Chain of Peroxisome proliferator-activated receptor gamma/Nuclear receptor coactivator 2 (Q15596 whole entry, further chain): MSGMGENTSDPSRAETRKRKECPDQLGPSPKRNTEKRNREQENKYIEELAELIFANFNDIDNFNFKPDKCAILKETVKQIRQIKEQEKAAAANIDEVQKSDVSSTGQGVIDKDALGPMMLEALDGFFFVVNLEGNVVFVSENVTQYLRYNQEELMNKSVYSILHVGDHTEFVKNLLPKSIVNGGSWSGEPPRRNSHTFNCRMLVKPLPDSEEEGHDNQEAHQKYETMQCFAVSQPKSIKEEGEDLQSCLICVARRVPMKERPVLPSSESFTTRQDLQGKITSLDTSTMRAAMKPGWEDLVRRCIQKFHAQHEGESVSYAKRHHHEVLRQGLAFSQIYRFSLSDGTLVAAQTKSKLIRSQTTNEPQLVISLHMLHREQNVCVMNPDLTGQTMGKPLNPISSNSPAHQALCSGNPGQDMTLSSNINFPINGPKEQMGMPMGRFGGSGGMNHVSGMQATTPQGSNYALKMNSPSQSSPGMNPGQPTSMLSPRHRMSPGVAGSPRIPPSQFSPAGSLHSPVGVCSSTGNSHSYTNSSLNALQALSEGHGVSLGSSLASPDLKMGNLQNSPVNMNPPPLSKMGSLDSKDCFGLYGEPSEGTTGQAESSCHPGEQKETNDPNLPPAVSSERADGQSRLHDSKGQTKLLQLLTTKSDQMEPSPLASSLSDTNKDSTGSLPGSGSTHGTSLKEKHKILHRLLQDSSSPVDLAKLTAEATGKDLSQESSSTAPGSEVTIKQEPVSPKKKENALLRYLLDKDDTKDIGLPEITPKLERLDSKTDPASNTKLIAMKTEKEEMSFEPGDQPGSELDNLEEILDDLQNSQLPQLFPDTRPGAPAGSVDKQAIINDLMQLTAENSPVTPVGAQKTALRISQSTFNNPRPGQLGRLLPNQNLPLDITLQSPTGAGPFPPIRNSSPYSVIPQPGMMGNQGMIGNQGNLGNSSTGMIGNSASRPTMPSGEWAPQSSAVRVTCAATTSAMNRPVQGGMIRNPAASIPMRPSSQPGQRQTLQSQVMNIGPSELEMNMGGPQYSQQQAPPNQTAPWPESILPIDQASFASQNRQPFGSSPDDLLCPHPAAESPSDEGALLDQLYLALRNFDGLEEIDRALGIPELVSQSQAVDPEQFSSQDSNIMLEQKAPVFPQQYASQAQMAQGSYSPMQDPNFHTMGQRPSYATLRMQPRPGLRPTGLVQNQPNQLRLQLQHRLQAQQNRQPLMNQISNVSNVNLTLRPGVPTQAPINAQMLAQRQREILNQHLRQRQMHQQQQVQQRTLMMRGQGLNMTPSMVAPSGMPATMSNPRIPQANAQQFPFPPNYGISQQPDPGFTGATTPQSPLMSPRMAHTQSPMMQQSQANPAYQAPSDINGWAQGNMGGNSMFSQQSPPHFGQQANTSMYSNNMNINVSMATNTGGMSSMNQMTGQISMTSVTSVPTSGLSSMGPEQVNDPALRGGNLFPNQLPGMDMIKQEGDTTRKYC
Chain of Peroxisome proliferator-activated receptor gamma/Nuclear receptor coactivator 1 (P37231 whole entry): as the sequence (P37231 whole entry) above
Chain of Peroxisome proliferator-activated receptor gamma/Nuclear receptor coactivator 1 (Q15788 whole entry, further chain): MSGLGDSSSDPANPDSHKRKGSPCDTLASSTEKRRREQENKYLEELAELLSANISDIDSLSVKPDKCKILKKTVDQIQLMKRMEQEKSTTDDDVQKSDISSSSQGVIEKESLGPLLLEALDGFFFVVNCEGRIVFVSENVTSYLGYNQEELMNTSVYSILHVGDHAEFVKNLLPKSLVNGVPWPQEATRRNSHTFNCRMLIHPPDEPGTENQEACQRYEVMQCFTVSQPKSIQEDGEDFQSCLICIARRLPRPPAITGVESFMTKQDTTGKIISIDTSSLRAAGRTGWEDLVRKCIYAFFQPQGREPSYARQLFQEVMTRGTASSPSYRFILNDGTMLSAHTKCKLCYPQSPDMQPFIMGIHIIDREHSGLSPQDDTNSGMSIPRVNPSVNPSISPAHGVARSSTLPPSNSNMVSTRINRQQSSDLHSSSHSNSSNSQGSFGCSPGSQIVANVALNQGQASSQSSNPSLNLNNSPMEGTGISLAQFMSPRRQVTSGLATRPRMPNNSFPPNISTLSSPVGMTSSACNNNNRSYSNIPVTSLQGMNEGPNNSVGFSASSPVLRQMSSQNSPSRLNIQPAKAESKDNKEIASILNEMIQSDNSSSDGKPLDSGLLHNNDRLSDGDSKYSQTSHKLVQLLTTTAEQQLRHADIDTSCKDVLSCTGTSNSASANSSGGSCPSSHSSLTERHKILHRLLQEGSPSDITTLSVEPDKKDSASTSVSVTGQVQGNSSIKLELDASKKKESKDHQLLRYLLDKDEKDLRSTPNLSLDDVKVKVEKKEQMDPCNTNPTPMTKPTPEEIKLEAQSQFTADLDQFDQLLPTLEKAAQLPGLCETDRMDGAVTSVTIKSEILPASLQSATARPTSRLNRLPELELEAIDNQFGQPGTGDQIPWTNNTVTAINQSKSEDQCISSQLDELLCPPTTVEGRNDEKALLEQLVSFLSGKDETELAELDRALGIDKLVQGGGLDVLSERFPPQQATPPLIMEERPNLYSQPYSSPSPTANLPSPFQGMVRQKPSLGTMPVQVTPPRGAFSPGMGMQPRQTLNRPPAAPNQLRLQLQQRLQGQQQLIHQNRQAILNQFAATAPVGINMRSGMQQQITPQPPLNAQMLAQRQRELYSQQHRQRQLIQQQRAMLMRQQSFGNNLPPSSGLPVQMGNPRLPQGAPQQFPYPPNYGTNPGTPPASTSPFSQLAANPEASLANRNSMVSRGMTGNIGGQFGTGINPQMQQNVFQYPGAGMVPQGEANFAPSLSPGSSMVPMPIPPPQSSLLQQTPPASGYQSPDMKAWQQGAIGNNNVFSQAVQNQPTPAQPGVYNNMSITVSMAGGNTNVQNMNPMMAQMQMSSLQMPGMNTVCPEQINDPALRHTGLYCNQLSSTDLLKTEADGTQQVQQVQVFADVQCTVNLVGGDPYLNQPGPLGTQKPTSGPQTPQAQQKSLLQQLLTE

Cc1cccc2c(N=Nc3ccc(S(=O)(=O)Nc4ccc(Cl)cc4)cc3[N+](=O)[O-])c(O)[nH]c12
IC50 (Genome polyprotein): > 49.8 µM (not active)

CCNc1ccc(Br)cc(C(=O)/C=C/c2ccc3c(c2)OCO3)c1=O
IC50 [1]: 2.58 µM (active) | AC50 (Cytochrome P450 2D6): 8.91 µM (inconclusive) | IC50 (Ephrin type-A receptor 4): 5.22 µM (active) | IC50 (Protein Tat): 29.1 µM (inconclusive)

COc1cc(/C=C2\SC(=S)N(Nc3ncc(C(F)(F)F)cc3Cl)C2=O)cc(OC)c1OC
IC50 (Ephrin type-A receptor 4): 3.57 µM (active)

O=C1CC(C(=O)Nc2ccc(Br)cc2)C2(CCCC2)O1 (configuration not stated)
AC50 (Caspase-6): 6.92 µM (active)

Cc1sc(-c2ccncc2)nc1OC(=O)c1ccc(F)cc1F
EC50 (Kallikrein-7): 26.5 µM (inactive)

CCOc1ccc(NC(=O)Cc2cccc3ccccc23)c([N+](=O)[O-])c1
IC50 [2]: > 67.5 µM (inactive)

COC(=O)c1ccc(C)c(NC(=O)CCSc2ccccc2)c1
IC50 (Protein Tat): 65.1 µM (inconclusive)

COc1ccc(C2C(C#N)=C(N)Oc3cc(O)ccc32)cc1Cl (configuration not stated)
AC50 (cells [3]): 19.9 µM (active)

Cc1cccc(Nc2nc(-c3ccccc3)cs2)n1
EC50 [4]: > 67.5 µM (inactive) | EC50 (cells [5]): > 67.5 µM (inactive)

O=C(Nc1nc2cc3c(cc2s1)OCCO3)c1ccc([N+](=O)[O-])o1
EC50 (Streptokinase A): > 150 µM (not active) | AC50 [6]: 26 µM (active) | EC50 [7]: > 60 µM (not active) | EC50 [8]: 1.78 µM (active) | EC50 [9]: 16.6 µM (active) | EC50 (Streptococcus): > 150 µM (not active)

COc1ccc(-c2cc(C3CCN(c4ccc(C(C)=O)cc4[N+](=O)[O-])CC3)[nH]n2)cc1
EC50 (Streptokinase A): > 150 µM (not active) | AC50 [10]: 17.6 µM (active) | AC50 [11]: 23 µM (active) | EC50 [7]: > 60 µM (not active) | AC50 [12]: 2.46 µM (active) | EC50 [8]: 1.87 µM (active) | EC50 [9]: 2.74 µM (active) | EC50 (Streptococcus): 24.3 µM (active)

COc1cccc(-c2nc3cc(C)ccc3o2)c1
EC50 [13]: > 100 µM (not active) | EC50 (HT-1080): > 50 µM (not active) | AC50 [6]: 26 µM (active) | EC50 [4]: > 67.6 µM (inactive) | EC50 (cells [5]): > 67.6 µM (inactive)

C[C@H](CO)N1C[C@H](C)[C@@H](CN(C)Cc2ccc(C(F)(F)F)cc2)OCCCC[C@H](C)Oc2ccc(NS(=O)(=O)c3ccc(Cl)cc3)cc2C1=O
AC50 (Paired box protein Pax-8): 7.37 µM (active) | AC50 [14]: 21.7 µM (active) | AC50 [15]: 34.1 µM (active) | AC50 [16]: 14.5 µM (active)

C[C@H]1CN([C@@H](C)CO)C(=O)c2cc(-c3ccccc3)cnc2O[C@@H]1CN(C)C(=O)c1cccc(F)c1
AC50 [17]: > 52 µM (inactive)

C[C@@H]1CN([C@H](C)CO)S(=O)(=O)c2ccc(C3=CCCCC3)cc2O[C@H]1CN(C)Cc1ccccc1
AC50 [18]: 11.4 µM (active)

O=C(Nc1ccccc1F)N1C[C@H]2[C@@H](c3ccccc31)[C@H](CO)N2C(=O)C1CC1
AC50 [19]: > 70 µM (inactive)

CO[C@@H]1CN(C)C(=O)c2ccc(NC(=O)c3ccc(Oc4ccccc4)cc3)cc2OC[C@@H](C)N(C(C)=O)C[C@H]1C
AC50 [18]: 24.2 µM (active)

COc1ccc2c3c([nH]c2c1)[C@H](CO)N(S(=O)(=O)c1ccc(C)cc1)CC31CN(Cc2ccccc2)C1
AC50 [20]: > 39 µM (inactive) | AC50 [21]: 17.5 µM (active)

Cc1ccc(S(=O)(=O)N[C@H]2CC[C@H](CCn3cc(C4CCCC4)nn3)O[C@@H]2CO)cc1
AC50 [20]: > 39 µM (inactive) | AC50 [21]: 13.6 µM (active)

Cc1cccn2c(=O)c3cc(C(=O)NCCN4CCOCC4)c(=N)n(CCc4ccccc4)c3nc12
EC50 [22]: > 79.4 µM (not active) | EC50 [23]: 11 µM (active) | EC50 [24]: > 120 µM (not active) | EC50 [25]: > 79.4 µM (not active) | EC50 (H4): > 120 µM (not active) | EC50 [26]: > 79.4 µM (not active) | AC50 (cells [27]): 31.4 µM (active) | AC50 (cells [3]): 1.28 µM (active)
